The structures appear in SMILES notation.

Experimental findings from EP4813377A1, “PHARMACEUTICAL COMPOSITION FOR PREVENTING OR TREATING HEAD AND NECK CANCER” (Astrion Inc., priority 2023, dated 2025) are described below.

One test deals with ANO1 protein. As to the kind of experiment: Western blot of protein expression. The class given is cell-based, human. The following applies: 48 hours, concentration-dependent. As for the experimental part:
(§1) Human head and neck cancer cell lines, FaDu cells and SCC-25 cells, were seeded in 60 mm dishes at a density of 5 × 10^5 cells and cultured for 24 hours. Thereafter, the FaDu cells were treated with compound AON-MG23 of the present invention at concentrations of 0 µM, 0.25 µM, 0.5 µM, 1 µM, 2 µM, and 4 µM, and the SCC-25 cells were treated with the compound at concentrations of 0 µM, 0.25 µM, 0.5 µM, 1 µM, and 2 µM. The cells were cultured for 48 hours. After culture, the cells were recovered, and the recovered cells were lysed to perform Western blot. As antibodies used for Western blot, an anti-ANO1 antibody (Abcam, ab53212), an anti-EGFR antibody (Cell Signaling, #4267S), and an anti-glyceraldehyde 3-phosphate dehydrogenase (GAPDH) antibody (Santacruz, #SC-5286) were used. Protein concentration was quantified using the […] (Protein Quantitation Assay, BSA assay) (Pierce, Cat.23225). After lysing the cells, the proteins obtained therefrom were separated by molecular weight using 10% sodium dodecyl sulfate-polyacrylamide gel electrophoresis (SDS-PAGE) with equal amounts (20 µg). After transferring the proteins to a polyvinylidene fluoride (PVDF) membrane (Bio-Rad), the proteins were treated with a 5% blocking buffer (5% skim milk in Tris-buffered saline (TBS) buffer containing 0.1% Tween 20 (TBS-T)) at room temperature for one hour. Subsequently, the membrane was treated with a primary antibody, which was allowed to react at 4 °C for 16 hours. After the reaction was complete, the membrane was washed three times with TBS-T. Subsequently, the membrane was treated with a secondary antibody labeled with horseradish peroxidase at room temperature for one hour and then visualized using an enhanced chemiluminescence (ECL) kit (Bio-Rad). The amount of each protein was quantified and analyzed using Image J software.
In general terms: In western blotting, separated proteins are transferred to a membrane and probed.

The subject of the next test is EGFR protein. As to the kind of experiment: Western blot of protein expression. The class given is cell-based, human. To be noted: 48 hours, concentration-dependent. The procedure: as §1
Test [1] relates to SCC-25 cells. Kind of test: CCK assay, cell proliferation. Format: cell-based, human. To be noted: 0.5-4 µM, 48 hours, absorbance at 450 nm, FIG. 1. As for the experimental part: (§2) FaDu cells and squamous cell carcinoma-25 (SCC-25) cells, which are human head and neck cancer cell lines, were seeded in 96-well plates at a density of 1 x 10^5 cells/well and cultured for 24 hours. Thereafter, the cells were treated with compound AON-MG23 of the present invention at various concentrations and cultured for 48 hours. The cells were treated with the compound of the present invention at various concentrations of 0 µM, 0.5 µM, 1 µM, 2 µM, and 4 µM. 10 µL of cell counting kit (CCK) reagent was added and allowed to react for one hour, and then the absorbance was measured at 450 nm.

Test [2] concerns FaDu cells. Kind of test: CCK assay, cell proliferation. The following applies: 0.5-4 µM, 48 hours, absorbance at 450 nm, FIG. 1. The class given is cell-based, human. The procedure:
as §2

The subject of test [3] is SCC-25 cells. As to the kind of experiment: cell migration assay (SPLScar Block plates). The class given is cell-based. The following applies: Homo sapiens, 17 hours, FIG. 3B, read-out: inhibition of migration compared to the control group. The procedure:
(§3) Human head and neck cancer cell lines, FaDu cells and SCC-25 cells, were seeded in SPLScar Block plates (SPL) at a density of 7.2 x 10^4/well and cultured for 24 hours. After 24 hours, the blocks were removed, and at the same time, compound AON-MG23 of the present invention was applied at various concentrations. Thereafter, cells were cultured in a CO2 incubator at 37 °C for 17 hours. Specifically, the FaDu cells were treated with compound AON-MG23 of the present invention at concentrations of 0 µM, 0.25 µM, 0.5 µM, 1 µM, and 2 µM, and the SCC-25 cells were also treated at concentrations of 0 µM, 0.25 µM, 0.5 µM, 1 µM, and 2 µM. Photographs were taken before and after each culture, and the migration distance of the cells was measured using Image J software. Based on the results, the inhibition of the cell migration was analyzed.

Test [4] deals with FaDu cells. Kind of test: cell migration assay (SPLScar Block plates). The class given is cell-based. To be noted: Homo sapiens, 17 hours, FIG. 3A, read-out: inhibition of migration compared to the control group. The procedure:
as §3

The test system of test [5] is SCC-25 cells. As to the kind of experiment: Matrigel Transwell invasion assay. Format: cell-based, human. To be noted: 0.25-2 µM, 24 hours, FIG. 4B. As for the experimental part:
(§4) Human head and neck cancer cell lines, FaDu cells and SCC-25 cells, were seeded at a density of 6 x 10^4 cells/well on top of filters coated with Matrigel (Transwell invasion chamber, Corning). Thereafter, the FaDu cells were treated with compound AON-MG23 of the present invention at concentrations of 0 µM, 0.25 µM, 0.5 µM, 1 µM, and 2 µM, and the SCC-25 cells were also treated with the compound at concentrations of 0 µM, 0.25 µM, 0.5 µM, 1 µM, and 2 µM. Cells were cultured in a CO2 in an incubator at 37 °C for 24 hours. After culture, cell fixation and staining were performed using the Diff-Quick stain Kit (Sysmex, Kobe, Japan). The stained cells were imaged under a microscope, and the cells were counted and statistically analyzed using Image J software.

The test system of test [6] is FaDu cells. Kind of test: Matrigel Transwell invasion assay. The following applies: 0.25-2 µM, 24 hours, FIG. 4A. The class given is cell-based, human. As for the experimental part:
as §4

Test [7] concerns FaDu cells. As to the kind of experiment: drug combination effect, SRB assay with Bliss scoring. Format: cell-based, human. The following applies: five days co-treatment, score > 0 = synergistic. The procedure:
The combination effect of compound AON-MG23 of the present invention was confirmed using Bliss scoring based on the results of the sulforhodamine B assay (SRB assay). Specifically, human head and neck cancer cell line FaDu cells were plated in a 96-well cell culture plate at a density of 1 x 10^3 cells/well. On the next day, in order to confirm the combination effect with compound AON-MG23 of the present invention, a drug, paclitaxel or osimertinib, was diluted to concentrations for testing, and cells were treated with the diluted drug and then cultured for five days. […] The absorbance of the dissolved solution was measured at 540 nm using a plate reader. The measured absorbance values were compared to the control group and converted into percentages, and the combination effect was analyzed using the percentage data at an analysis website (https://synergyfinder.fimm.fi/). The presence of a combination effect was evaluated according to the following criteria based on relevant literature (Bliss, C. I. (1939). The toxicity of poisons applied jointly. Annals of Applied Biology, 26(3), 585-615.): a score > 0 indicates a synergistic effect; a score = 0 indicates an independent effect; and a score < 0 indicates an antagonistic effect.
(Sulforhodamine B stains cellular protein and so reports cell mass.)

The test system of test [8] is FaDu cells. Kind of test: clonogenic assay. The class given is cell-based, human. To be noted: 0.125-1 µM, nine days, FIG. 2. The procedure: To confirm the proliferation inhibitory effect of compound AON-MG23 of the present invention on head and neck cancer cells, a clonogenic assay was conducted. Specifically, head and neck cancer cell line FaDu cells were plated in a 6-well cell culture plate at a density of 250 cells per well. On the next day, the cell culture medium was removed and replaced with a cell culture medium containing compound AON-MG23 of the present invention at concentrations of 0 µM, 0.125 µM, 0.25 µM, 0.5 µM, and 1 µM. After culturing the cells for nine days, the resulting cell colonies were stained and photographed, and then the cell colonies were counted and analyzed using Image J software.

Setting [9] is: SCC-25 cells, 0.25-2 µM, FIG. 5B.

For the compound `COc1cc(N2CCC(N(C)C)CC2)ccc1Nc1ncc(Cl)c(Nc2ccccc2N(C2CC2)S(C)(=O)=O)n1` [AON-MG23, N-(2-((5-chloro-2-((4-(4-(dimethylamino)piperidin-1-yl)-2-methoxyphenyl)amino)pyrimidin-4-yl)amino)phenyl)-N-cyclopropylmethanesulfonamide], the ANO1 protein level result is recorded as “significantly inhibited” in the test with ANO1 protein (FaDu cells, 0.25-4 µM, FIG. 5A) and “significantly inhibited” in the test with ANO1 protein (setting [9]). Besides, the EGFR protein level result with EGFR protein (FaDu cells, 0.25-4 µM, FIG. 5A) is “significantly inhibited”; with EGFR protein (setting [9]), “significantly inhibited”. Moreover, the “proliferation of head and neck cancer cells” value in the test on SCC-25 cells [1] is “inhibited the proliferation of head and neck cancer cells”; in the test on FaDu cells [2], “inhibited the proliferation of head and neck cancer cells”. Besides, the inhibition at 1 µM in the test with SCC-25 cells [3] is about 90%. Moreover, the inhibition at 2 µM in the test with FaDu cells [4] is at least 80%. The “degree of penetration into Matrigel” value with SCC-25 cells [5] and in the test on FaDu cells [6] was “reduced degree of penetration into Matrigel compared to the untreated control group” in each case. The Bliss synergy score worked out at 19.25 in the test on FaDu cells [7] (combination with osimertinib, FIG. 6B) and 6.72 points in the test with FaDu cells [7] (combination with paclitaxel, FIG. 6A). For the same compound, the clonogenesis result with FaDu cells [8] is on record as “clonogenesis of the FaDu cells was inhibited”.
